Source: US20260234630A1, “Methods for Treating Multiple Myeloma” (Celgene Corporation, priority 2022, published 2026)

Assays:
H3K27ac at UHRF1 TSS = assay: ChIP-qPCR of H3K27ac occupancy at UHRF1 gene; type: cell-based; details: H929 and MM1.S cells, 1 μM POM, 24 hr
Procedure: FIG. 2A-2E. UHRF1 expression is positively regulated by Ikaros and Aiolos in IMiDs sensitive MM cells. (2A) Western blot analysis protein expression of UHRF1, Ikaros, Aiolos, ZFP91 and Cereblon expression in control [shLuciferase (shLuc)] and cereblon knockdown (shCRBN) H929 cells treated with DMSO and 1 μM POM for 3 days. GAPDH, loading control. Arrow head, UHRF1. (2B) qRT-PCR analysis of UHRF1 gene expression levels in cells as in (2A). Data was normalized to ACTB. Error bars represent the SEM of technical duplicates. *** P<0.001 (Two-tailed unpaired Student's t-test). […]
ChIP-qPCR was performed using ChIP-IT Express Enzymatic kit (Active Motif) according to the manufacture manual with some modifications. […] DNA was purified using a PCR purification kit (Qiagen) and analyzed by qPCR using the Power SYBR Green PCR Master Mix.
Procedures afterward were performed according to the manufacture manual. Eluted DNA was purified using a PCR purification kit (Qiagen) and analyzed by quantitative real-time PCR on the Viia 7 Real Time PCR System using the Power SYBR Green PCR master mix (Applied Biosystems). Statistical differences were calculated using a […] unpaired Student's t-test.

Ikaros, Aiolos and ZFP91 = assay: Western blot of cereblon substrates in MM cells; type: cell-based
Procedure: FIG. 1A-1F. […] (1A) Volcano plot of protein expression changes determined by mass spectrometry in H929 cells at 24 hr of treatment with CC-220 (0.1 μM) or DMSO control. X axis, Log2fold change (FC); Y axis, significance,-log 10 [p-value]. […] (1B) Volcano plot of gene expression changes determined by Affymetrix microarray in H929 cells treated with POM (1 μM) or DMSO for 24 hr. X axis, Log2fold change (FC); Y axis, significance,-log 10 [p-value], n=2 technical replicates). […] (1C) Western blot analysis protein expression of UHRF1, Ikaros, Aiolos and ZFP91 in H929 cells treated with 1 μM POM for indicated time. (1D) qRT-PCR analysis of UHRF1 gene expression levels in cells as in (1C). Error bars represent the SEM from duplicate measurements. (1E) Western blot analysis protein expression of UHRF1 and indicated proteins in MM cells treated with DMSO (−) or 1 μM POM (+) for 3 days. GAPDH serves as a loading control. (1F) Thymidine incorporation of various MM cell lines treated with indicated dose of POM for 3 days. Error bars represent the SEM from technical replicates.
FIG. 2A-2E. […] (2A) Western blot analysis protein expression of UHRF1, Ikaros, Aiolos, ZFP91 and Cereblon expression in control [shLuciferase (shLuc)] and cereblon knockdown (shCRBN) H929 cells treated with DMSO and 1 μM POM for 3 days. GAPDH, loading control. Arrow head, UHRF1. (2B) qRT-PCR analysis of UHRF1 gene expression levels in cells as in (2A). Data was normalized to ACTB. Error bars represent the SEM of technical duplicates. *** P<0.001 (Two-tailed unpaired Student's t-test). (2C) Western blot analysis protein expression of UHRF1, Ikaros and Aiolos in stably transduced H929 cells after Dox induction (0, 10, 50 or 100 ng/ml) for 3 days of non-target shRNA (shNT) or shRNAs targeting Ikaros (shIKZF1) or Aiolos (shIKZF3). (2D) qRT-PCR analysis of UHRF1 gene expression levels in cells as in (2C). Shown are cells induced with Dox (50 ng/ml) for 3 days. Data was normalized to GAPDH. Error bars represent the SEM of technical duplicates. *P<0.05, ** P<0.01, *** P<0.001, **** P<0.0001 (Two-tailed unpaired Student's t-test). […] ChIP with control rabbit IgG (IgG) serves as a negative control. Error bars represent the SEM of technical triplicates. * P<0.05, ** P<0.01, **** P<0.0001 (Two-tailed unpaired Student's t-test).
Cells were lysed with cell lysis buffer (50 mM TrisHCl pH7.4, 250 mM NaCl, 0.5% Triton X100, 10% glycerol) supplemented with protease inhibitor cocktail. Cell lysates were subjected to sonication to breakdown nuclei and reduce viscosity caused by released genomic DNA. The protein concentration was measured by a Bradford Protein Assay (Bio-Rad). […] Proteins of interested were detected incubation with primary antibodies listed below at 4° C. overnight. […]

Nc1cccc2c1C(=O)N(C1CCC(=O)NC1=O)C2=O (centres unmarked) [POM, pomalidomide]
H3K27ac level at the UHRF1 TSS (H3K27ac at UHRF1 TSS): drastically reduced
time to degradation of Ikaros, Aiolos and ZFP91 proteins (Ikaros, Aiolos and ZFP91; H929 cells, POM 1 μM, time course): ≤ 3 h
cereblon substrates (Ikaros, Aiolos, ZFP91) protein (Ikaros, Aiolos and ZFP91; MC/CAR and RPMI 8226 cells, 1 μM POM, 3 days): degraded
Ikaros, Aiolos and ZFP91 expression level (Ikaros, Aiolos and ZFP91; sensitive cell lines H929, MM1.S, DF15 and U266, 1 μM POM, 72 hours): downregulated
degradation of the substrates by POM under cereblon knockdown (Ikaros, Aiolos and ZFP91; shCRBN vs shLuc H929 cells, 1 μM POM, 3 days): rescued
